From EP0470323A2, “New salts of the nicotinic acid with aminobenzylic compounds and their pharmaceutical use” (BROMLEY LIMITED, priority 1990, dated 1992) come the findings set out here.

In assay [1] the test system is Central artery of a rabbit's ear. Put plainly: In vitro antispastic action, adrenalin-induced spasm of the perfused isolated artery. The note with it: spasm induced by Adrenalin, n=4. As to the method: An "in vitro" method has been used, according to which the withdrawal of the central artery of a rabbit's ear with the relevant nervous connections and the equipment of an appropriate seat for secluded organs was designed (Fleckenstein A., British Journal of Pharmacology 7, 533, 1952).
On the artery they did install a three-ways tube, connected with a peristaltic pump and with a mercury manometer to record the perfusion pressure. The artery was perfused with a rebs liquid at the speed of 2,5 ml/minute. The contractions were induced by injecting into the vessel 0,1 ml adrenalin at the concentration of 1 mcg/ml. The compound according to the example 1 has been added to the bath at concentrations of 0,5 - 1 - 2 uM, five minutes before the adrenalin (four preparations per concentration). As comparison drugs, chlorhydra ted Buflomedil and Papaverin have been used. The activity of the material under investigation has been appreciated in terms of percentages referring to the concentration induced by the Adrenalin (and expressed with DE₅₀) and the relevant forbidding.

Assay [2] deals with skin temperature of the mouse's paw. Put plainly: Peripheral vessel-dilating activity in the mouse (skin temperature of hind paws). Format: in vivo. The note with it: listed as buflomedil HCl; for Temperature (°C) of the hind paws (n=10): intravenous, dose 0,030 mM/kg/iv; for Temperature (°C) of the hind paws: oral, dose 0,500 mM/kg/os. As to the method:
The method of Richter W. (Acta Pharm. Toxicol. 21, 91; 1974) was used; it consists in determining, at fixed time intervals after the treatment, the skin temperature of the mouse's paw, by keeping the animals in rooms at a constant temperature of 21°C.
Some groups of ten male mouses each have been used; the weight of each animal was 30 g approximately.
The compound according to the Example 1 has been tested "per os" at three basic levels of the doses (0,125 - 0,25 - 0,5 mM/kg) and by intravenous injection at two dose levels (0,015 and 0,03 mM/kg), in comparison with one sole dose of Papaverin and chlorhydrated Buflomedil (0,5 mM/kg "per os" and 0,03m M/kg intravenous). The observation of the skin temperature at the mouse's paw was made before the treatment, 30, 60 and 120 minutes after the "per os" treatment, […] (A-Hl Ellab) connected with an Ellab electric recorder. Of each animal the temperature of both hind paws has been measured, and the values obtained have been averaged .

Assay [3] has as its system aggregation of the platelets caused by the collagene. Put plainly: Anti-aggregating ex vivo activity against collagen in the rat. As to the method:
Six groups of 15 male rats of 200 - 250 g have been used.
The blood taken from the three rats of each group has been mixed and centrifuged during 6 minutes at 1400 rpm, at room temperature. After having taken the plasma full of platelets (PRP) the thereunder floating material has been centrifuged again (4000 rpm during 10 minutes) in order to have the plasma with few platelets (PPP) separated from the balance. The PRP has been diluted with a part of PPP in order to bring the number of platelets to 350 ± 50 x 10³/mm³. The aggregation has been evaluated in accordance with the method of Minsker D.H. and coll. (J. Pharmacol.Exp.Ther. 210 37 1979) by using an ELVI 840 two-channels aggregometer and an Omniscribe recorder B.500. A quantity of 0,25 ml PRP has been used, transferred into the aggregometer for two minutes at 37°C and stirred at 1000 rpm. The light intensity was arranged in such a way, to obtain 0% transmittance with the PRP and 100% with the PPP. After 2′ incubation, by means of microsyringe the collagene was added to the PRP in a volume quantity of 5 mcl with the final concentration of 4 mcg/ml.
From the aggregation trace of the recorder the following data have been evaluated: • a) latent time of the aggregation (seconds between the introductions of collagene and the starting of the aggregation) • b) transmittance increase percentage (maximum aggregation). The same proceeding was repeated for all animals, always by mixing the blood of three rats belonging to the same group and by obtaining in this manner five aggregation curves per group.

Assay [4] deals with red cells in the rat. Put plainly: Red cell adhesivity / filtration, Teitel method. The assay is classed as in vivo. The note with it: for Teitel method Δ % vs contr.: dose 3 x 0,5 mM/kg/os; for Teitel method T1/2 min. M ± E.S.: dose 3 x 0,5 mM/kg/os (three consecutive days). The text has this:
(§1) steresis (Teiltel P.: Nouv. Rev. Franç. Hématol. 7, 195, 1967). Any alteration, almost undoubtely at the level of the red cell's membrane, cause some damaging variations of the red cell's elasticity thus making more difficult the passing through the capillary vessels having more reduced diameter, and therefore increasing the flow resistance in the peripheral vessels systems. In order to determine the effect caused by the compound according to the Example 1, on these features of the red cell, the method described by Schmidt, Schonbein and colleagues (Blut 26, 369, 1973) has been used.
(§2) In the circulatory flow, the above mentioned capillary vessels being excluded, the blood cells do normally circulate being attached between each other because of their adhesiveness. In order to study this adhesion force, the above mentioned Teitel method has been used. Male rats of 150 g body weight approximately have been employed, and they have been treated for three consecutive days with 0,5 mM/kg/os of the compound according to the Example 1, or otherwise Buflomedil, or even Pentosiphillin used as comparison substance. After the last treatment the animals, without eating from 18 hours, have been killed in a light ethereal anaesthesy and the blood was collected over an 0,2 molar EDTA (9 and 1 volumes respectively). The red cells filtering possibility, measured with the Teitel method, wherein the quantity of red cells passing, in high haematocritical conditions, through a paper filter with holes of 20-40 µm in a previously determined time, has been ascertained as follows: the blood was centrifuged for ten minutes at 2000 rpm in order to obtain the massing of the red cells, two ml of the blood collected as above were put into an upside down turned cone made with filtering paper, being previously wetted with a physiological solution. The volume passing through the filter in 2 - 4 - 8 and 16 minutes is then measured. The average filtration time T 1/2 is reckoned on semi-logarithmic paper by putting on the abscissae the logarithm of the time, and on the ordinates the percentage of blood filtered. In order to follow the Schmidt Schönbein method, the here after described proceeding has been performed: 0,2 ml of a suspension of red cells at 2% obtained by diluting the blood with the autological plasma, then it was placed into an appropriate device permitting to filter this blood through a filter (millipores) of 5 µm mashes at a filtration pressure of 50 mm water. With a chronometer one determines the time required for the passage of the whole sample through the filter.
At time same time, one measures, in the same conditions, the same parameter for a plasma sample. One calculates then the relative filtration time by dividing the time required to filter the diluted blood sample by the time being necessary to filter the plasma sample. For each group the average and the standard error of the individual data obtained was reckoned. The statistical evaluation was obtained by means of the Dunnett test.

For assay [5], the system named is red cells in the rat. Put plainly: Red cell deformability / filtration, Schmidt-Schönbein method. To be noted: dose 3 x 0,5 mM/kg/os. Format: in vivo.
Excerpt: as §1
as §2, with “The average filtration time T 1/2 is reckoned on semi-logarithmic paper by putting on the abscissae the logarithm of the time, and on the ordinates the percentage of blood filtered. In order to follow the Schmidt Schönbein method, the here after described proceeding has been performed: 0,2 ml of a suspension of red cells at 2% obtained by diluting the blood with the autological plasma, then it was placed into an appropriate device permitting to filter this blood through a filter (millipores) of 5 µm mashes at a filtration pressure of 50 mm water. With a chronometer one determines the time required for the passage of the whole sample through the filter.” left out

The mark [6] stands for this setting: 0 minutes (before the treatment).
[7] abbreviates: rat, 1,00 mM/kg os for 4 days, PRP 2 hours after last treatment, collagene 4 mcg/ml, listed as Chlorhydrated Buflo-medil.
Setting [8] is: rat, 1,00 mM/kg os for 4 days, listed as Chlorhydrated Buflo-medil.

Take `COc1cc(OC)c(C(=O)CCCN2CCCC2)c(OC)c1` [Buflomedil, reference compound]: the EC50 in assay [1] (Oryctolagus cuniculus, read-out: DE50 (the source's name)) worked out at 670 nM. The “% inhibi-tions of the con-tractions” value in assay [1] (concentration 0,5 μ M) is on record as 41%; in assay [1] (concentration 1,0 μ M), 60%; in assay [1] (concentration 2,0 μ M) it was 87%. Further, the “Temperature (°C) of the hind paws (n=10)” value in assay [2] (setting [6]) is 24,3 ± 0,32 °C; in assay [2] (30 minutes from the treatment), 26,6 ± 0,20 °C; in assay [2] (60 minutes from the treatment) it was 26,3 ± 0,24 °C; in assay [2] (120 minutes from the treatment) it was 26,0 ± 0,18 °C. Besides, the “Temperature (°C) of the hind paws” value in assay [2] (setting [6]) is 24,2 ± 0,30 °C; in assay [2] (30 minutes from the treatment) it was 25,8 ± 0,25 °C; in assay [2] (60 minutes from the treatment), 26,5 ± 0,50 °C; in assay [2] (120 minutes from the treatment) it was 26,1 ± 0,42 °C. The “effect relative to that caused by the same dose of the compound according to the example 1” value in assay [3] (rat, 1 mM/kg os, platelet aggregation by collagene) is reported as “approximately 50%”. Besides, the “Latency time (sec.)” value in assay [3] (setting [7]) was 51,9 ± 3,7 sec. Besides, the “Transmittance percentage (maximum aggregation)” value in assay [3] (setting [7]) is 54,2 ± 4,5%. For the same molecule, the “Latency time, % variation vs controls” value in assay [3] (setting [8]) is given as “+38,4%”. Also, the “Transmittance percentage, % variation vs controls” value in assay [3] (setting [8]) is -31%. In addition, in the assay on red cells in the rat [4], the “Teitel method Δ % vs contr.” value is on record as 20,3%. Moreover, the “Teitel method T1/2 min. M ± E.S.” value with red cells in the rat [4] is listed as 2,90 ± 0,28 min. The “Schmidt-Schönbein method Δ % vs contr.” value in the assay with red cells in the rat [5] is given as 24,2%.
Take `CC(=O)CCCCn1c(=O)c2c(ncn2C)n(C)c1=O` [pentossifillin]: in the assay on red cells in the rat [4], the “Teitel method Δ % vs contr.” value was 40,1% and the “Teitel method T1/2 min. M ± E.S.” value is given as 2,18 ± 0,19 min. In addition, in the assay with red cells in the rat [5], the “Schmidt-Schönbein method Δ % vs contr.” value is given as 52,8%.
